Test results: patent US11752147B2, “Pharmaceutical composition for the treatment of pain” (AZIENDE CHIMICHE RIUNITE ANGELINI FRANCESCO A.C.R.A.F. …, priority 2015, dated 2023)

How the values were obtained:
[1] = tested on: allodynia induced by ligature of the sciatic nerve in rats; assay: Ligature of the sciatic nerve in rats (allodynia, von Frey); format: in vivo; conditions: one hour after administration, vs vehicle
Experimental: Male CD rats weighing 200-250 g on arrival were used.
The allodynia was induced by ligature under anaesthesia of the sciatic nerve of the left hind leg [Seltzer Z, Dubner R, Shir Y. A novel behavioural model of neuropathic pain disorders produced in rats by partial sciatic nerve injury. Pain 1990; 43: 205-218; Bennet G J, Xie Y K. A peripheral mononeuropathy in rat that produces disorders of pain sensation like those seen in man. Pain 1988; 33: 87-107].
The pain threshold was measured with a von Frey machine, which makes it possible, by applying a gradual increase in pressure to the paw of the left hind leg of the rat, to record the nociceptive response, expressed in grams, corresponding to the moment at which the animal withdraws the leg.
After-treatment measurement was made at one hour following administration. The analgesic activity is evaluated as % reversal.

[2] = tested on: acetic acid-induced writhing in mice; assay: Acetic acid-induced writhing test in mice; conditions: vs vehicle
Experimental: (§1) The test compounds were evaluated in the model of acetic acid-induced writhing in mice (Stock J. L. et al., J. Clin. Inv. 2001, 107: 325 331).
(§2) Writhing test is a chemical method used to induce pain of peripheral origin by injection of acetic acid in mice. Analgesic activity is inferred from decrease in the frequency of writhing.
(§3) This test allowed evaluation of the antinociceptive activity of the compounds of the invention in a model of inflammatory pain.
(§4) Writhing is defined as a stretch, tension to one side, extension of hind legs, contraction of the abdomen so that the abdomen of mice touches the floor, turning the trunk (twist).
(§5) Male CD-1 mice weighing 20-25 g were used for the test.
(§6) One hour after the treatment, an intraperitoneal injection of acetic acid (0.7% v/v in physiological saline, 16 μl/g of body weight) was given to the mice to induce inflammatory pain and to check the effects of the test compound on the nociceptive response.
(§7) Five minutes after the administration of acetic acid and for the following 10 minutes the number of writhes was measured, which represents the parameter for evaluation of the nociceptive response. The analgesic activity is evaluated as % inhibition.

[3] = tested on: acetic acid-induced writhing in mice; conditions: mouse, in vivo, po
Experimental: as §1, §2, §3, §4, §5, §6, §7

Q: With `NCC1(CC(=O)O)CCCCC1` [Gabapentin, gabapentin] as the molecule, how does the Reversal % ([1]; 3.0 mg/kg) read?
A: 3.7%

Q: And the Reversal % ([1]; 100 mg/kg (effective amount))?
A: 37.0%

Q: And the “Writhing number reduction %” value ([2]; Table 2 TEST 1 (FIG. 2a), 1.5 mg/kg oral)?
A: 27.1%

Q: What about the “Writhing number reduction %” value ([2]; Table 2 TEST 2 (FIG. 2b), 5 mg/kg oral) of the same molecule?
A: 38.1%

Q: And the “Writhing number reduction %” value ([2]; Table 2 TEST 3 (FIG. 2c), 15 mg/kg oral)?
A: 45.9%

Q: And the “Writhing number reduction %” value ([2]; Table 3 TEST 1 RATIO 1:20, 1.5 mg/kg oral)?
A: 29.2%

Q: And the “Writhing number reduction %” value ([2]; Table 3 TEST 2 RATIO 1:10, 1.5 mg/kg oral)?
A: 27.1%

Q: What about the “Writhing number reduction %” value ([2]; Table 3 TEST 3 RATIO 1:5, 0.75 mg/kg oral) of the same molecule?
A: 22.4%

Q: And the “Writhing number reduction %” value ([2]; Table 3 TEST 4 RATIO 1:1, 0.15 mg/kg gabapentin oral)?
A: 28.3%

Q: What about the “Writhing number reduction %” value ([2]; Table 3 TEST 5 RATIO 5:1, 0.15 mg/kg oral) of the same molecule?
A: 30.2%

Q: And the “Writhing number reduction %” value ([2]; Table 3 TEST 6 RATIO 10:1, 0.15 mg/kg oral)?
A: 27.2%

Q: `O=c1n(CCCN2CCN(c3cccc(Cl)c3)CC2)nc2ccccn12` [Trazodone, trazodone] was tested. Which Reversal % ([1]; 0.3 mg/kg) did it give?
A: 3.1%

Q: What about the ED50 [3] of the same molecule?
A: 1.2 mg/kg

Q: And the “Writhing number reduction %” value ([2]; Table 2 TEST 1 (FIG. 2a), 0.15 mg/kg oral)?
A: 16.0%

Q: What about the “Writhing number reduction %” value ([2]; Table 2 TEST 2 (FIG. 2b), 0.5 mg/kg oral) of the same molecule?
A: 44.4%

Q: And the “Writhing number reduction %” value ([2]; Table 2 TEST 3 (FIG. 2c), 1.5 mg/kg oral)?
A: 57.1%

Q: And the “Writhing number reduction %” value ([2]; Table 3 TEST 1 RATIO 1:20, 0.075 mg/kg oral)?
A: 2.1%

Q: What about the “Writhing number reduction %” value ([2]; Table 3 TEST 2 RATIO 1:10, 0.15 mg/kg oral) of the same molecule?
A: 16.0%

Q: What about the “Writhing number reduction %” value ([2]; Table 3 TEST 3 RATIO 1:5, 0.15 mg/kg oral) of the same molecule?
A: 16.3%

Q: What about the “Writhing number reduction %” value ([2]; Table 3 TEST 4 RATIO 1:1, 0.15 mg/kg trazodone oral) of the same molecule?
A: 12.2%

Q: What about the “Writhing number reduction %” value ([2]; Table 3 TEST 5 RATIO 5:1, 0.75 mg/kg oral) of the same molecule?
A: 57.4%

Q: And the “Writhing number reduction %” value ([2]; Table 3 TEST 6 RATIO 10:1, 1.5 mg/kg oral)?
A: 59.7%
